Assay results: patent publication US20250320213A1, “Nitrogen-Containing Heterocyclic Compounds” (Pfizer Inc., priority 2024, published 2025)
Counter-ions that a name gives are not always drawn. Like-named read-outs stand apart in the source and are kept apart here.

Experiments:
[1] = biological target: T1, STAT6 (Homo sapiens, UniProt P42226); assay: STAT6 Reporter Luciferase Assay (IL-13 stimulated HaCaT keratinocyte NanoLuc reporter cells); format: cell-based; conditions: read-out: Reporter EC50
T1 construct: stably transfected HaCaT keratinocyte cell line, which expresses NanoLuc luciferase reporter gene under the transcriptional control of the STAT6 responsive promoter; endogenous in cells; host or cells: HaCaT keratinocyte reporter cell line (stably transfected with a NanoLuc reporter)
T1 sequence (P42226 1-847): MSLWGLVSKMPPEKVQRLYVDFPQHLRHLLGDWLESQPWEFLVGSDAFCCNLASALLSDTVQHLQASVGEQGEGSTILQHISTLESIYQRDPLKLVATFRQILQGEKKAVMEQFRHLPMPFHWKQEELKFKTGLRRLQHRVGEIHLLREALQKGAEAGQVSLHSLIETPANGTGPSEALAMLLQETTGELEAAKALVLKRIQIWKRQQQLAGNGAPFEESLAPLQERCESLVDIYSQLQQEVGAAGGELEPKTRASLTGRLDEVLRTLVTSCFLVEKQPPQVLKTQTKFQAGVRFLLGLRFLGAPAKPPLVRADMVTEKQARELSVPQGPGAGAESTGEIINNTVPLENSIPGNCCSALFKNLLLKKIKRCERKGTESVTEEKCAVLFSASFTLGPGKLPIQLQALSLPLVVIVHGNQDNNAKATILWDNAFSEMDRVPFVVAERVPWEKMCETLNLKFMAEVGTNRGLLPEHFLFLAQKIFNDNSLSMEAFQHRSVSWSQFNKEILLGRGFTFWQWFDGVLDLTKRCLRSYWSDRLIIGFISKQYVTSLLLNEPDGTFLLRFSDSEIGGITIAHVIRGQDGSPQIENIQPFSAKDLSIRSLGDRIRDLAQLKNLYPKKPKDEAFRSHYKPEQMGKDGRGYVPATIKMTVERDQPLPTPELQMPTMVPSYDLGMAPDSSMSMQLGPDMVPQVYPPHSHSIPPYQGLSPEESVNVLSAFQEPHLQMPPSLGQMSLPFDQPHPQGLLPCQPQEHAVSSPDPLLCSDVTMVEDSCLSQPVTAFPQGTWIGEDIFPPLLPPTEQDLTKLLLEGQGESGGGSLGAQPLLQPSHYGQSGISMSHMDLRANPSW
In short: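 Stably transfected HaCaT cells carrying NanoLuc under the STAT6-responsive IL-13Ra2 promoter were pre-treated with compound (11-point, 4-fold series, duplicate) for 2 h at 37 °C, then stimulated with 0.12 nM IL-13 for 4 h. Nano-Glo luminescence was read after 15 min.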

[2] = system: CCL17 secretion in peripheral human whole blood; assay: Human Whole Blood (HWB) CCL17 TR-FRET Assay (IL-13 stimulated CCL17 secretion); format: cell-based
Description: The IC50 (half-maximal concentration required for inhibition) of compounds for the inhibition of CCL17 secretion in peripheral human whole blood, stimulated through the IL-13-IL-13 receptor/IL-4 receptor pathway was evaluated with a TR-FRET sandwich ELISA CCL17 (TARC) Assay Kit (Bioauxilium).
Test compounds (solubilized and serially diluted in DMSO, in an 11 point, 3-fold dilution series in duplicate) were spotted, 80 nL per well, into a 384 well v-bottom polypropylene plate. Human whole blood was collected from a peripheral vein, 714 units of sodium heparin was added for every 50 mL of blood collected. Sixty μL per well of blood was added to the compound plate. The blood plate was incubated for two hours at 37° C. After two hours, CCL17 production was stimulated with the addition of 20 μL per well of IL13 (R&D Systems) in HBSS with calcium and magnesium, with a final concentration of 10 ng/mL IL13. The plate containing blood, compound, and IL-13 was incubated at 37° C. for 48 hours, to allow for CCL17 production. After 48 hours, the plate was centrifuged at 1,500 revolutions per minute (RPM) for 7 minutes, with no braking. The CCL17 TR-FRET Assay Kit detection reagent was prepared according to kit instructions and 4 μL per well of the antibody cocktail was added to a 384-well white low volume non-binding coated plate (Corning). Sixteen μL of serum from the centrifuged blood plate was transferred to the detection plate containing the TR-FRET antibody cocktail. The plate was centrifuged briefly, then covered and incubated 16 hours at room temperature. The plate was then read on an EnVision 2105 multilabel reader (PerkinElmer) with settings for TR-FRET Ratio=10,000×(fluorescence intensity 665 nm/fluorescence intensity 615 nm).

[3] = IL-13 stimulated HaCaT STAT6 NanoLuc reporter cells
[4] = Homo sapiens, 48 h, human whole blood, IL-13 stimulated
[5] = STAT6 NanoLuc luciferase reporter, IL-13 stimulated HaCaT keratinocyte cells
[6] = inhibition of CCL17 secretion in human whole blood, 10 ng/mL IL13, 48 hours
[7] = Homo sapiens, 48 h, inhibition of CCL17 secretion in human whole blood, 10 ng/mL IL13, 48 hours

| EC50 [1, 3] [nM] | EC50 [1, 5] [nM] | IC50 [2, 7] [nM] | SMILES | further results |
| --- | --- | --- | --- | --- |
| 1 |  |  | CC(n1nc(C(=O)NCc2ccc(NC(=O)N(C)C)cc2)c2c1[C@@H](C)CN(c1ccc(C(=O)N(C)C)cn1)C2)C(F)(F)F (mixture of isomers) [Example 262, (S)-5-(5-(dimethylcarbamoyl)pyridin-2-yl)-N-(4-(3,3-dimethylureido)benzyl)-7-methyl-1-((RS)-1,1,1-trifluoropropan-2-yl)-4,5,6,7-tetrahydro-1H-pyrazolo[4,3-c]pyridine-3-carboxamide] | IC50 [2, 4]: 6 nM |
| 1 |  |  | COCC(C)n1nc(C(=O)NCc2ccc(NC(=O)N(C)C)cc2)c2c1[C@@H](C)CN(c1ccc(C(=O)N(C)C)cn1)C2 (mixture of isomers) [Example 344, (S)-5-(5-(dimethylcarbamoyl)pyridin-2-yl)-N-(4-(3,3-dimethylureido)benzyl)-1-((RS)-1-methoxypropan-2-yl)-7-methyl-4,5,6,7-tetrahydro-1H-pyrazolo[4,3-c]pyridine-3-carboxamide] | IC50 [2, 4]: 8 nM |
| 4 |  |  | CC(n1nc(C(=O)NCc2ccc(NC(=O)N(C)C)cc2)c2c1[C@H](C)CN(c1ccc(C(=O)N(C)C)cn1)C2)C(F)(F)F (mixture of isomers) [Example 553, (R)-5-(5-(dimethylcarbamoyl)pyridin-2-yl)-N-(4-(3,3-dimethylureido)benzyl)-7-methyl-1-((RS)-1,1,1-trifluoropropan-2-yl)-4,5,6,7-tetrahydro-1H-pyrazolo[4,3-c]pyridine-3-carboxamide] | IC50 ([2]; Homo sapiens, 48 h, human whole blood, 10 ng/mL IL13, 48 hours): 18 nM |
|  | 69 | 561 | CN(C)C(=O)Nc1ccc(CNC(=O)c2nn(C)c3c2CC(c2ccc(C(=O)N(C)C)cc2)CC3)cc1 (racemic) [Example 26, rac-(R)-5-(4-(Dimethylcarbamoyl)phenyl)-N-(4-(3,3-dimethylureido)benzyl)-1-methyl-4,5,6,7-tetrahydro-1H-indazole-3-carboxamide] |  |
|  | 9 | 39 | CC1Cc2c(c(C(=O)NCc3ccc(NC(=O)N(C)C)cc3)nn2C)CN1c1ccc(C(=O)N(C)C)cn1 (racemic) [Example 49, rac-(R)-5-(5-(dimethylcarbamoyl)pyridin-2-yl)-N-(4-(3,3-dimethylureido)benzyl)-1,6-dimethyl-4,5,6,7-tetrahydro-1H-pyrazolo[4,3-c]pyridine-3-carboxamide] |  |
|  | 10 | 12 | CC1c2c(C(=O)NCc3ccc(NC(=O)N(C)C)cc3)nn(C)c2CCN1c1ccc(C(=O)N(C)C)cn1 (racemic) [Example 55, rac-(R)-5-(5-(dimethylcarbamoyl)pyridin-2-yl)-N-(4-(3,3-dimethylureido)benzyl)-1,4-dimethyl-4,5,6,7-tetrahydro-1H-pyrazolo[4,3-c]pyridine-3-carboxamide] |  |
|  | 98 | 182 | CCC1CN(c2ccc(C(=O)N(C)C)cn2)Cc2c(C(=O)NCc3ccc(NC(=O)N(C)C)cc3)n[nH]c21 (racemic) [Example 57, rac-(R)-5-(5-(dimethylcarbamoyl)pyridin-2-yl)-N-(4-(3,3-dimethylureido)benzyl)-7-ethyl-4,5,6,7-tetrahydro-1H-pyrazolo[4,3-c]pyridine-3-carboxamide] |  |
|  | 3 | 27 | CC1CN(c2ccc(-c3nccn3C)cn2)Cc2c(C(=O)NCc3ccc(NC(=O)N(C)C)cc3)nn(C)c21 (racemic) [Example 59, rac-(R)-N-(4-(3,3-dimethylureido)benzyl)-1,7-dimethyl-5-(5-(1-methyl-1H-imidazol-2-yl)pyridin-2-yl)-4,5,6,7-tetrahydro-1H-pyrazolo[4,3-c]pyridine-3-carboxamide] |  |
|  | 9 | 66 | CC(C1CC1)n1nc(C(=O)NCc2ccc(NC(=O)N(C)C)cc2)c2c1CCN(c1ccc(C(=O)N(C)C)cn1)C2 (racemic) [Example 62, rac-(R)-1-(1-cyclopropylethyl)-5-(5-(dimethylcarbamoyl)pyridin-2-yl)-N-(4-(3,3-dimethylureido)benzyl)-4,5,6,7-tetrahydro-1H-pyrazolo[4,3-c]pyridine-3-carboxamide] |  |
|  | 2 | 14 | CCn1nc(C(=O)NCc2ccc(NC(=O)N(C)C)cc2)c2c1C(C)CN(c1ccc(C(=O)N(C)C)cn1)C2 (racemic) [Example 71, rac-(R)-5-(5-(dimethylcarbamoyl)pyridin-2-yl)-N-(4-(3,3-dimethylureido)benzyl)-1-ethyl-7-methyl-4,5,6,7-tetrahydro-1H-pyrazolo[4,3-c]pyridine-3-carboxamide] |  |
| 0.3 |  |  | CC(C)n1nc(C(=O)NCc2ccc(NC(=O)N3CCC4(CCCN(C)C4)CC3)cc2)c2c1[C@@H](C)CN(c1ccc(C(=O)N(C)C)cc1)C2 [Example 757, (S)-N-(4-((5-(4-(dimethylcarbamoyl)phenyl)-1-isopropyl-7-methyl-4,5,6,7-tetrahydro-1H-pyrazolo[4,3-c]pyridine-3-carboxamido)methyl)phenyl)-2-methyl-2,9-diazaspiro[5.5]undecane-9-carboxamide] |  |

| SMILES | EC50 [1, 3] [nM] | EC50 [1, 5] [nM] | IC50 [2, 7] [nM] | further results |
| --- | --- | --- | --- | --- |
| CC(C)n1nc(C(=O)NCc2ccc(NC(=O)N3C[C@H]4CC[C@@H](C3)N4)c(F)c2)c2c1[C@@H](C)CN(c1ccc(C(=O)N(C)C)cc1)C2 (mixture of isomers) [Example 573, (S)-N-(4-((1RS,5SR)-3,8-diazabicyclo[3.2.1]octane-3-carboxamido)-3-fluorobenzyl)-5-(4-(dimethylcarbamoyl)phenyl)-1-isopropyl-7-methyl-4,5,6,7-tetrahydro-1H-pyrazolo[4,3-c]pyridine-3-carboxamide] | 1 |  |  | IC50 ([2]; human whole blood, 10 ng/mL IL13, 48 hours): 11 nM |
| CC1CN(c2ccc(C(=O)N(C)C)cn2)Cc2c(C(=O)NCc3ccc(NC(=O)N(C)C)cc3)nn(C)c21 (racemic) [Example 6, rac-(R)-5-(5-(Dimethylcarbamoyl)pyridin-2-yl)-N-(4-(3,3-dimethylureido)benzyl)-1,7-dimethyl-4,5,6,7-tetrahydro-1H-pyrazolo[4,3-c]pyridine-3-carboxamide] |  | 4 |  | IC50 [2, 6]: 25 nM |
| Cc1nc(C(=O)NCc2ccc(NC(=O)N(C)C)cc2)c2n1C(C)CN(c1ccc(C(=O)N(C)C)cn1)C2 (racemic) [Example 9, rac-(R)-7-(5-(Dimethylcarbamoyl)pyridin-2-yl)-N-(4-(3,3-dimethylureido)benzyl)-3,5-dimethyl-5,6,7,8-tetrahydroimidazo[1,5-a]pyrazine-1-carboxamide formate] |  | 15 |  | IC50 [2, 6]: 27 nM |
| CN(C)C(=O)Nc1ccc(CNC(=O)c2nn(C)c3c2[C@H]2CCC[C@@H](C3)N2c2ccc(C(=O)N(C)C)cn2)cc1 (racemic) [Example 68, rac-(4R,8S)-10-(5-(dimethylcarbamoyl)pyridin-2-yl)-N-(4-(3,3-dimethylureido)benzyl)-1-methyl-4,5,6,7,8,9-hexahydro-1H-4,8-epiminocycloocta[c]pyrazole-3-carboxamide] |  | 9 |  | IC50 [2, 6]: 43 nM |
